# Patent publication US6852759B2, “Process for the synthesis of trans-alkenoic acids, use thereof” (priority 2002, dated 2005)
# Marks after values point to notes of the source that are not given here.
# Legend:
# [1] = tested on: alcohol induced hepatic damage in rats; assay: Hepatoprotective activity against alcohol induced hepatic damage (serum and hepatic parameters); format: in vivo; conditions: for Hepatic Protein % change: only change and not protection
# [2] = tested on: CCl4, Paracetamol, Galactosamine and alcohol as hepatotoxins; assay: Antihepatotoxicity/hepato-protective activity in vivo, overall comparison with silymarin; conditions: prophylactic and curative aspects in vivo
# [3] = tested on: D-Galactosamine (Gal N) induced hepatic injury in rats; assay: Hepatoprotective activity, prophylactic study, D-Galactosamine; format: in vivo
# [4] = tested on: D-Galactosamine (Gal N) induced hepatic injury in rats; assay: Hepatoprotective activity, curative study, D-Galactosamine; format: in vivo
# [5] = tested on: CCl4 administration in mice; assay: Hexobarbitone sleep time after CCl4 administration; format: in vivo
# [6] = 12.5 mg/kg p.o. + Gal N, prophylactic
# [7] = 25 mg/kg p.o. + Gal N, prophylactic
# [8] = 50 mg/kg p.o. + Gal N, prophylactic
# [9] = TCA alone 100 mg/kg p.o., no Gal N, prophylactic study
# [10] = 12.5 mg/kg p.o. + Gal N, curative
# [11] = 25 mg/kg p.o. + Gal N, curative
# [12] = 50 mg/kg p.o. + Gal N, curative
# [13] = TCA alone 50 mg/kg p.o., no Gal N, curative study
# [14] = 12.5 mg/kg p.o. 1 h before CCl4, mice
# [15] = 25 mg/kg p.o. 1 h before CCl4, mice
# [16] = 50 mg/kg p.o. 1 h before CCl4, mice
# [17] = 100 mg/kg p.o. 1 h before CCl4, mice
compound,measurement,setting,value
"CCCCCCCC/C=C/CCCCCCCCCCCCCC(=O)O [TCA, t-Tetracos-15-enoic acid]",Hepatic G-6-Pase,[1]; 25 mg/kg + Alcohol,2.19 ± 0.465 Units/g
same,Hepatic G-6-Pase % Protection,[1]; 25 mg/kg + Alcohol,73%
same,Hepatic Protein,[1]; 25 mg/kg + Alcohol,172 ± 20.430 Mg/g
same,Hepatic SDII,[1]; 25 mg/kg + Alcohol,7.79 ± 0.272 Units/G
same,Hepatic SDII % Protection,[1]; 25 mg/kg + Alcohol,14%
same,Hepatic TG,[1]; 25 mg/kg + Alcohol,14.75 ± 0.60 Mg/g
same,Hepatic TG % change,[1]; 25 mg/kg + Alcohol,−3.10%
same,Hepatic Protein % change,[1]; 25 mg/kg + Alcohol,−3.9%
same,ALF,"[1]; 25 mg/kg + Alcohol, serum",16.00 ± 2.04 U/I
same,ALF % Protection,"[1]; 25 mg/kg + Alcohol, serum",80.00%
same,GGT,"[1]; 25 mg/kg + Alcohol, serum",1.90 ± 0.447 IU/I
same,GGT % Protection,"[1]; 25 mg/kg + Alcohol, serum",63.00%
same,SGOT,"[1]; 25 mg/kg + Alcohol, serum",310.00 ± 30.36**^β U/I
same,SGOT % Protection,"[1]; 25 mg/kg + Alcohol, serum",77.29%
same,SGPT,"[1]; 25 mg/kg + Alcohol, serum",234.00 ± 8.80**^β U/I
same,SGPT % Protection,"[1]; 25 mg/kg + Alcohol, serum",57.33%
same,Serum Protein,"[1]; 25 mg/kg + Alcohol, serum",16.90 ± 3.38 G/dl
same,Serum Protein % Protection,"[1]; 25 mg/kg + Alcohol, serum",44.40%
same,Hepatic G-6-Pase,[1]; 50 mg/kg + Alcohol,2.20 ± 2.223 Units/g
same,Hepatic G-6-Pase % Protection,[1]; 50 mg/kg + Alcohol,75%
same,Hepatic Protein,[1]; 50 mg/kg + Alcohol,174 ± 2.11 Mg/g
same,Hepatic SDII,[1]; 50 mg/kg + Alcohol,8.24 ± 0.390 Units/G
same,Hepatic SDII % Protection,[1]; 50 mg/kg + Alcohol,43%
same,Hepatic TG,[1]; 50 mg/kg + Alcohol,15.44 ± 1.073 Mg/g
same,Hepatic TG % change,[1]; 50 mg/kg + Alcohol,1.40%
same,Hepatic Protein % change,[1]; 50 mg/kg + Alcohol,−2.80%
same,ALF,"[1]; 50 mg/kg + Alcohol, serum",14.60 ± 2.82***^β U/I
same,ALF % Protection,"[1]; 50 mg/kg + Alcohol, serum",95.00%
same,GGT,"[1]; 50 mg/kg + Alcohol, serum",1.54 ± 0.128 IU/I
same,GGT % Protection,"[1]; 50 mg/kg + Alcohol, serum",90.00%
same,SGOT,"[1]; 50 mg/kg + Alcohol, serum",295.00 ± 34.39**^β U/I
same,SGOT % Protection,"[1]; 50 mg/kg + Alcohol, serum",101.09%
same,SGPT % Protection,"[1]; 50 mg/kg + Alcohol, serum",73.86%
same,Serum Protein,"[1]; 50 mg/kg + Alcohol, serum",12.60 ± 3.09 G/dl
same,Serum Protein % Protection,"[1]; 50 mg/kg + Alcohol, serum",7.70%
same,antihepatotoxicity/hepato-protective activity compared with silymarin,[2],better protection and reversal of biochemical parameters better then those obtained with silymarin
same,Serum ALP,[3]; [6],47.07 ± 2.98 μmole of p-nitrophenol formed/min/L
same,"Serum ALP, hepatoprotective activity percent",[3]; [6],(30.88 ± 7.77) percent
same,Serum Bilirubin,[3]; [6],0.56 ± 0.03 mg %
same,"Serum Bilirubin, hepatoprotective activity percent",[3]; [6],(39.49 ± 4.59) percent
same,Serum GOT,[3]; [6],613.20 ± 65.19 Units
same,"Serum GOT, hepatoprotective activity percent",[3]; [6],(34.60 ± 7.57) percent
same,Serum GPT,[3]; [6],743.62 ± 66.83 Units
same,"Serum GPT, hepatoprotective activity percent",[3]; [6],(39.30 ± 6.25) percent
same,Serum Triglycerides,[3]; [6],26.49 ± 1.88 mg %
same,"Serum Triglycerides, hepatoprotective activity percent",[3]; [6],(37.38 ± 6.18) percent
same,Serum ALP,[3]; [7],40.49 ± 2.29 μmole of p-nitrophenol formed/min/L
same,"Serum ALP, hepatoprotective activity percent",[3]; [7],(51.62 ± 6.31) percent
same,Serum Bilirubin,[3]; [7],0.44 ± 0.05 mg %
same,"Serum Bilirubin, hepatoprotective activity percent",[3]; [7],(58.00 ± 3.86) percent
same,Serum GOT,[3]; [7],505.26 ± 29.63 Units
same,"Serum GOT, hepatoprotective activity percent",[3]; [7],(47.68 ± 3.99) percent
same,Serum GPT,[3]; [7],635.11 ± 54.67 Units
same,"Serum GPT, hepatoprotective activity percent",[3]; [7],(49.35 ± 5.16) percent
same,Serum Triglycerides,[3]; [7],23.58 ± 2.02 mg %
same,"Serum Triglycerides, hepatoprotective activity percent",[3]; [7],(46.97 ± 6.67) percent
same,Serum ALP,[3]; [8],34.94 ± 1.43 μmole of p-nitrophenol formed/min/L
same,"Serum ALP, hepatoprotective activity percent",[3]; [8],(66.91 ± 3.92) percent
same,Serum Bilirubin,[3]; [8],0.36 ± 0.02 mg %
same,"Serum Bilirubin, hepatoprotective activity percent",[3]; [8],(70.76 ± 2.78) percent
same,Serum GOT,[3]; [8],406.05 ± 25.82 Units
same,"Serum GOT, hepatoprotective activity percent",[3]; [8],(61.05 ± 3.48) percent
same,Serum GPT,[3]; [8],413.53 ± 23.94 Units
same,"Serum GPT, hepatoprotective activity percent",[3]; [8],(70.34 ± 2.25) percent
same,Serum Triglycerides,[3]; [8],21.37 ± 1.51 mg %
same,"Serum Triglycerides, hepatoprotective activity percent",[3]; [8],(54.25 ± 4.97) percent
same,Serum ALP,[3]; [9],19.84 ± 1.58 μmole of p-nitrophenol formed/min/L
same,Serum Bilirubin,[3]; [9],0.20 ± 0.02 mg %
same,Serum GOT,[3]; [9],122.47 ± 11.84 Units
same,Serum GPT,[3]; [9],95.22 ± 8.74 Units
same,Serum Triglycerides,[3]; [9],8.79 ± 0.55 mg %
same,Serum ALP,[4]; [10],46.03 ± 2.35^NS μmole of p-niotrophenol formed/min/L
same,"Serum ALP, hepatoprotective activity percent",[4]; [10],(43.65 ± 6.96) percent
same,Serum Bilirubin,[4]; [10],0.56 ± 0.03 mg %
same,"Serum Bilirubin, hepatoprotective activity percent",[4]; [10],(46.75 ± 3.74) percent
same,Serum GOT,[4]; [10],494.53 ± 41.13 Units
same,"Serum GOT, hepatoprotective activity percent",[4]; [10],(34.12 ± 6.65) percent
same,Serum GPT,[4]; [10],578.14 ± 57.37 Units
same,"Serum GPT, hepatoprotective activity percent",[4]; [10],(40.40 ± 7.08) percent
same,Serum Triglycerides,[4]; [10],11.85 ± 0.75^NS mg %
same,"Serum Triglycerides, hepatoprotective activity percent",[4]; [10],(32.78 ± 8.37) percent
same,Serum ALP,[4]; [11],38.87 ± 2.62 μmole of p-niotrophenol formed/min/L
same,"Serum ALP, hepatoprotective activity percent",[4]; [11],(64.83 ± 7.74) percent
same,Serum Bilirubin,[4]; [11],0.46 ± 0.03 mg %
same,"Serum Bilirubin, hepatoprotective activity percent",[4]; [11],(59.74 ± 4.04) percent
same,Serum GOT,[4]; [11],449.93 ± 31.58 Units
same,"Serum GOT, hepatoprotective activity percent",[4]; [11],(41.37 ± 5.10) percent
same,Serum GPT,[4]; [11],518.66 ± 42.64 Units
same,"Serum GPT, hepatoprotective activity percent",[4]; [11],(47.74 ± 5.26) percent
same,Serum Triglycerides,[4]; [11],10.48 ± 0.91^NS mg %
same,"Serum Triglycerides, hepatoprotective activity percent",[4]; [11],(46.11 ± 9.77) percent
same,Serum ALP,[4]; [12],36.94 ± 1.87 μmole of p-niotrophenol formed/min/L
same,"Serum ALP, hepatoprotective activity percent",[4]; [12],(71.88 ± 5.54) percent
same,Serum Bilirubin,[4]; [12],0.35 ± 0.02 mg %
same,"Serum Bilirubin, hepatoprotective activity percent",[4]; [12],(73.16 ± 2.95) percent
same,Serum GOT,[4]; [12],391.66 ± 29.53 Units
same,"Serum GOT, hepatoprotective activity percent",[4]; [12],(50.76 ± 4.78) percent
same,Serum GPT,[4]; [12],412.17 ± 31.17 Units
same,"Serum GPT, hepatoprotective activity percent",[4]; [12],(60.88 ± 3.85) percent
same,Serum Triglycerides,[4]; [12],9.23 ± 0.59 mg %
same,"Serum Triglycerides, hepatoprotective activity percent",[4]; [12],(61.84 ± 6.59) percent
same,Serum ALP,[4]; [13],24.45 ± 2.76 μmole of p-niotrophenol formed/min/L
same,Serum Bilirubin,[4]; [13],0.19 ± 0.02 mg %
same,Serum GOT,[4]; [13],91.07 ± 10.50 Units
same,Serum GPT,[4]; [13],105.02 ± 18.74 Units
same,Serum Triglycerides,[4]; [13],6.44 ± 0.38 mg %
same,Hexobarbitone Hepatoprotection,[5]; [14],35.55 ± 5.78%
same,Hexobarbitone Sleeping time,[5]; [14],44.16 ± 1.87*^c min
same,Hexobarbitone Hepatoprotection,[5]; [15],55.14 ± 7.16%
same,Hexobarbitone Sleeping time,[5]; [15],37.83 ± 2.31**^c min
same,Hexobarbitone Hepatoprotection,[5]; [16],74.21 ± 6.27%
same,Hexobarbitone Sleeping time,[5]; [16],31.66 ± 2.31**^c min
same,Hexobarbitone Hepatoprotection,[5]; [17],85.04 ± 7.12%
same,Hexobarbitone Sleeping time,[5]; [17],28.16 ± 2.30**^c min
same,Hexobarbitone Sleeping time,"[5]; TCA alone 100 mg/kg p.o., no CCl4, mice",21.85 ± 1.34 min
